Results as given in EP1619195A2, “Compounds isolated from gamboge resin having activity in inhibiting the growth of tumor/cancer cells and pharmaceutical compositions comprising the same” (priority 2004, dated 2006).
pIC50: −log10 of the molar value. Values after ≈ are worked out from the molar mass of the structure shown. Values joined by “and” are separate entries in the source; they are usually repeats but may differ in a detail not shown here. Equal entries are not always repeated. Marks after values point to notes of the source that are not given here.

Columns and labels:
HT-29 (colon cancer) = test: cells; details: for LC50: 50% cell destroying lethal concentration; for pIC50: positive control
From the text: (§1) The cancer cell growth inhibition test was primarily used to detect the effect of a candidate drug on cancer cell proliferation. The working principle involved therein is the abilityof viable cells to shift alamarBlue (Biosource, USA) from its originally non-fluorescent oxidized state to a reduced form (fluorescent, red) having fluorescence via metabolic reaction. According to the fluorescent data result generated by the alamarBlue reagent thus obtained, the proliferation of the viable cells and cell activity can be quantified for detection.
(§2) In this experiment, the assay concentrations of the candidate drug were set to be 0.01, 0.1, 1, 10, and 100 µg/ml, and the following cell lines were used: 6 human cancer cells MCF-7 (breast cancer), HT-29 (colon cancer), HL-60 (leukemia), HepG2 (liver cancer), A549 (lung cancer), and U937 (lymphoma cancer), and a normal human umbilicalvenalepithelialcell (HUVEC).

HL-60 (leukemia) = test: cells; details: for LC50: 50% cell destroying lethal concentration; for pIC50: positive control
From the text: as §1, §2

MCF-7 (breast cancer) = test: cells; details: for LC50: 50% cell destroying lethal concentration
From the text: as §1, §2

HepG2 (liver cancer) = test: cells; details: for LC50: 50% cell destroying lethal concentration; for pIC50: positive control
From the text: as §1, §2

U937 (lymphoma cancer) = test: cells; details: for LC50: 50% cell destroying lethal concentration; for pIC50: positive control
From the text: as §1, §2

A549 (lung cancer) = test: cells; details: for LC50: 50% cell destroying lethal concentration; for pIC50: positive control
From the text: as §1, §2

HUVEC = test: in vitro; details: for LC50: 50% cell destroying lethal concentration; for pIC50: positive control
From the text: as §1, §2

[1] = system: Human breast cancer cells MCF-7 (ATCC HTB-22); test: In vivo tumor growth inhibition, MCF-7 xenograft in SCID mice; details: 2 mg/kg x 5, intraperitoneal, 4-day interval
Experimental: Mixture formulation TSB-9 was further subjected to an animal test, in which female mice (6-8 weeks old, weighing 20-22 grams) originally from C.B-17/Icr background and having Severe Combined Immune Deficiency (SCID) were used.
Human breast cancer cells MCF-7 (ATCC HTB-22) (1x10^7 cells/0.2 ml) were implanted subcutaneously into the dorsal side of the mice, and 50 µg/mouse of estradiol benzoate (Sigma, USA) was injected subcutaneously into the mice weekly as supplement for a total of 4 weeks. When the tumor growth reached ≥5 mm in diameter (that very day was denoted as day 1), tumor-bearing […] mice were randomly divided into 4 groups (6 mice in each group).
Mixture formulation TSB-9 was dissolved in 10%DMSO, and was administered orally to the mice every day at two dosages 40 mg/kg and 80 mg/kg, respectively, for a total of 21 consecutive days. […] This treatment group served as a positive control.
Measurements were taken once every 4 days during the experiment periods, and were recorded.

CC(C)=CCc1c2c(c(O)c3c1OC14C(=CC5CC1C(C)(C)OC4(CC=C(C)CO)C5=O)C3=O)C=CC(C)(C)O2 (stereo not drawn) [TSB-6, isomorellinol]
LC50 (HT-29 (colon cancer); HT-29): 8.5 µg/mL (≈ 15.5 µM)
IC50 (HT-29 (colon cancer); Homo sapiens, HT-29): 5.2 µg/mL
LC50 (HL-60 (leukemia); HL-60): 6.2 µg/mL (≈ 11.3 µM)
IC50 (HL-60 (leukemia); Homo sapiens, HL-60): 1.4 µg/mL
IC50 (MCF-7 (breast cancer); Homo sapiens, MCF7): 0.9 µg/mL
LC50 (MCF-7 (breast cancer); MCF-7): 5.8 µg/mL (≈ 10.6 µM)
LC50 (HepG2 (liver cancer); HepG2): 3.0 µg/mL (≈ 5.49 µM)
IC50 (HepG2 (liver cancer); Homo sapiens, HepG2): 1.2 µg/mL
IC50 (U937 (lymphoma cancer); Homo sapiens, U-937): 1.3 µg/mL
LC50 (U937 (lymphoma cancer); U937): 3.8 µg/mL (≈ 6.95 µM)
LC50 (A549 (lung cancer); A549): 9.6 µg/mL (≈ 17.6 µM)
IC50 (A549 (lung cancer); Homo sapiens, A549): 2 µg/mL
LC50 (HUVEC; HUVEC (normal human cell)): 9.3 µg/mL (≈ 17 µM)
IC50 (HUVEC; Homo sapiens, HUVEC): 1.5 µg/mL

CC(C)=CCc1c2c(c(O)c3c1OC14C(=CC5CC1C(C)(C)OC4(CC=C(C)C(=O)O)C5=O)C3=O)C=CC(C)(C)O2 (stereo not drawn) [TSB-7, morellic acid]
LC50 (HT-29 (colon cancer); HT-29): 7.2 µg/mL (≈ 12.8 µM)
IC50 (HT-29 (colon cancer); HT-29, 50% cell growth inhibition concentration): 2.8 µg/mL
LC50 (HL-60 (leukemia); HL-60): 5.6 µg/mL (≈ 9.99 µM)
IC50 (HL-60 (leukemia); HL-60, 50% cell growth inhibition concentration): 1.2 µg/mL
LC50 (MCF-7 (breast cancer); MCF-7): 6.2 µg/mL (≈ 11.1 µM)
IC50 (MCF-7 (breast cancer); MCF-7, 50% cell growth inhibition concentration): 0.98 µg/mL
LC50 (HepG2 (liver cancer); HepG2): 3.9 µg/mL (≈ 6.96 µM)
IC50 (HepG2 (liver cancer); HepG2, 50% cell growth inhibition concentration): 1.7 µg/mL
LC50 (U937 (lymphoma cancer); U937): 4.8 µg/mL (≈ 8.56 µM)
IC50 (U937 (lymphoma cancer); U937, 50% cell growth inhibition concentration): 1.6 µg/mL
LC50 (A549 (lung cancer); A549): 3.4 µg/mL (≈ 6.06 µM)
IC50 (A549 (lung cancer); A549, 50% cell growth inhibition concentration): 0.76 µg/mL
LC50 (HUVEC; HUVEC (normal human cell)): 4.8 µg/mL (≈ 8.56 µM)
IC50 (HUVEC; HUVEC (normal human cell), 50% cell growth inhibition concentration): 0.88 µg/mL

CC(C)=CCc1c2c(c(O)c3c1OC14C(=CC5CC1C(C)(C)OC4(CC=C(C)C)C5=O)C3=O)C=CC(C)(C)O2 (stereo not drawn) [TSB-8, desoxymorellin]
LC50 (HT-29 (colon cancer); HT-29): 69 µg/mL (≈ 130 µM)
IC50 (HT-29 (colon cancer); Homo sapiens, HT-29, HT-29, 50% cell growth inhibition concentration): 6.7 µg/mL
LC50 (HL-60 (leukemia); HL-60): > 100 µg/mL
IC50 (HL-60 (leukemia); Homo sapiens, HL-60, HL-60, 50% cell growth inhibition concentration): 6.5 µg/mL
IC50 (MCF-7 (breast cancer); Homo sapiens, MCF7, MCF-7, 50% cell growth inhibition concentration): 5.3 µg/mL
LC50 (MCF-7 (breast cancer); MCF-7): 83 µg/mL (≈ 156 µM)
LC50 (HepG2 (liver cancer); HepG2): 31 µg/mL (≈ 58.4 µM)
IC50 (HepG2 (liver cancer); Homo sapiens, HepG2, HepG2, 50% cell growth inhibition concentration): 3.9 µg/mL
IC50 (U937 (lymphoma cancer); Homo sapiens, U-937): 6.2 µg/mL
LC50 (U937 (lymphoma cancer); U937): > 100 µg/mL
LC50 (A549 (lung cancer); A549): 56 µg/mL (≈ 106 µM)
IC50 (A549 (lung cancer); Homo sapiens, A549, A549, 50% cell growth inhibition concentration): 4.8 µg/mL
LC50 (HUVEC; HUVEC (normal human cell)): 40 µg/mL (≈ 75.4 µM)
IC50 (HUVEC; Homo sapiens, HUVEC, HUVEC (normal human cell), 50% cell growth inhibition concentration): 2.8 µg/mL

CO[C@@]12[C@H](COC(N)=O)C3=C(C(=O)C(C)=C(N)C3=O)N1C[C@@H]1N[C@@H]12 [mitomycin, reference compound]
Tumor growth (%T/C) ([1]; Day 1): 98%
Tumor growth (%T/C) ([1]; Day 5): 31* %
Tumor growth (%T/C) ([1]; Day 9): 1* %
Tumor growth (%T/C) ([1]; Day 13): -6* %
Tumor growth (%T/C) ([1]; Day 17): -23* %
Tumor growth (%T/C) ([1]; Day 21): -36* %
Tumor growth (%T/C) ([1]; Day 25): -56* %
Tumor growth (%T/C) ([1]; Day 29): -70* %
pIC50 (HT-29 (colon cancer); HT-29): 6.92 and 7.05
pIC50 (HT-29 (colon cancer); Homo sapiens, HT-29, HT-29): 7.05
pIC50 (HL-60 (leukemia); HL-60): 7.33 and 7.57
pIC50 (HL-60 (leukemia); Homo sapiens, HL-60, HL-60): 7.41
pIC50 (MCF-7 (breast cancer); MCF-7, positive control): 7.16 and 7.47
pIC50 (HepG2 (liver cancer); HepG2): 7.59
pIC50 (HepG2 (liver cancer); HepG2, listed as Mitomycin): 7.21 and 7.44
pIC50 (U937 (lymphoma cancer); Homo sapiens, U-937, U937): 7.16
pIC50 (U937 (lymphoma cancer); U937): 7.46 and 7.25
pIC50 (A549 (lung cancer); A549): 7.21
pIC50 (A549 (lung cancer); Homo sapiens, A549, A549): 7.17
pIC50 (HUVEC; HUVEC (normal human cell)): 6.62
pIC50 (HUVEC; HUVEC (normal human cell), listed as Mitomycin): 6.77
